Laboratory results: ChEMBL document CHEMBL5291721, “A preclinical secondary pharmacology resource illuminates target-adverse drug reaction associations of marketed drugs” (Nat Commun, 2023)

Key:
Prothrombin = Prothrombin (Homo sapiens, UniProt P00734); format: functional
[1] = biological target: cGMP-inhibited 3',5'-cyclic phosphodiesterase 3A (Homo sapiens, UniProt Q14432); format: functional
[2] = biological target: Sodium-dependent noradrenaline transporter (Homo sapiens, UniProt P23975)
[3] = biological target: T1, Muscarinic acetylcholine receptor M1 (Homo sapiens, UniProt P11229); format: functional, cell-based
T1 sequence (P11229 whole entry): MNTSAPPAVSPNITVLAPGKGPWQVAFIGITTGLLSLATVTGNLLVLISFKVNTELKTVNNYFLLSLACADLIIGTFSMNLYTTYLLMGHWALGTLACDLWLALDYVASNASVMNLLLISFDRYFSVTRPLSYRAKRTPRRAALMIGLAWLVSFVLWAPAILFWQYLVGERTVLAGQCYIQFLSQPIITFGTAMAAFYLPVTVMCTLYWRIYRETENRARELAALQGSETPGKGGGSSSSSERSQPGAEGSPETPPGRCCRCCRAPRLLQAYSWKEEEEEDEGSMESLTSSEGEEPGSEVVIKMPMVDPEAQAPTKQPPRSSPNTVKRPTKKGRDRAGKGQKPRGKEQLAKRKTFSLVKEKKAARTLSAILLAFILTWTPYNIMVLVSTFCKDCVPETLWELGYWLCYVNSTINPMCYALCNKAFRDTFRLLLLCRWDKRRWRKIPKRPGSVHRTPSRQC

[4] = biological target: 3',5'-cyclic-AMP phosphodiesterase 4A (Homo sapiens, UniProt P27815); format: functional
D(3) dopamine receptor = D(3) dopamine receptor (Homo sapiens, UniProt P35462)
Adenosine receptor A3 = biological target: T2, Adenosine receptor A3 (Homo sapiens, UniProt P0DMS8)
T2 sequence (P0DMS8 whole entry): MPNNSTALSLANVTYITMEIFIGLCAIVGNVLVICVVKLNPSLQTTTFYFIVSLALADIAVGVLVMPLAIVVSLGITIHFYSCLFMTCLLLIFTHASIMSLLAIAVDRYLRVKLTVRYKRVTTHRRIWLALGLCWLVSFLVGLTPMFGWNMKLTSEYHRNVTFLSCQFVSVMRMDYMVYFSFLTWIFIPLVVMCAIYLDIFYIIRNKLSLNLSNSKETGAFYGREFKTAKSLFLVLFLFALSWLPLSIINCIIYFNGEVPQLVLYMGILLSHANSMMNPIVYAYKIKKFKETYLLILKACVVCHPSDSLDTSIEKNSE

Mu-type opioid receptor = Mu-type opioid receptor (Homo sapiens, UniProt P35372)
Cannabinoid receptor 1 = Cannabinoid receptor 1 (Homo sapiens, UniProt P21554)
Progesterone receptor = biological target: T3, Progesterone receptor (Homo sapiens, UniProt P06401); format: functional
T3 sequence (P06401 whole entry): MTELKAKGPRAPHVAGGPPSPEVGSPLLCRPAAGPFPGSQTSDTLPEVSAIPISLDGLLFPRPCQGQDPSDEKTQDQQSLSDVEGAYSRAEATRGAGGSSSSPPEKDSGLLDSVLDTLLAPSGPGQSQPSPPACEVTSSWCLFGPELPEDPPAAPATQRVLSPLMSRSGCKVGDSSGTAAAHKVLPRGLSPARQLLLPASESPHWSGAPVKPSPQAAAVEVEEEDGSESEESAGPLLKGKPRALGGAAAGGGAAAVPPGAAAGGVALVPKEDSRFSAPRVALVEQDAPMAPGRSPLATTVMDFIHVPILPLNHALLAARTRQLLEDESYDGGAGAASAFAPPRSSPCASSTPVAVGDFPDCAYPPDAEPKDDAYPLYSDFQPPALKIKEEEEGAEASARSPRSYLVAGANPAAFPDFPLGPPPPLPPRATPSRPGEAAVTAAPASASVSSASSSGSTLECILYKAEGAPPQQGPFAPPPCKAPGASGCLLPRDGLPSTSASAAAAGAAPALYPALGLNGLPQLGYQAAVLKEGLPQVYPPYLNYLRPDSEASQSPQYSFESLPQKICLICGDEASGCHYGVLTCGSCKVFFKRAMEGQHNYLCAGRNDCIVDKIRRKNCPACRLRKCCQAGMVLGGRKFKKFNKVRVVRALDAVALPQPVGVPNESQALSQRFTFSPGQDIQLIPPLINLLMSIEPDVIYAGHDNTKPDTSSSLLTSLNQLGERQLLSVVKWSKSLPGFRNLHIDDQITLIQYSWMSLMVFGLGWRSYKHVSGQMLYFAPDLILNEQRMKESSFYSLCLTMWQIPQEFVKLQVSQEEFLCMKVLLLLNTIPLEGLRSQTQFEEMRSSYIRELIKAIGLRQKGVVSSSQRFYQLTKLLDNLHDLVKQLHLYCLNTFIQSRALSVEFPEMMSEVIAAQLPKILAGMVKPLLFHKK

[5] = biological target: Voltage-dependent L-type calcium channel subunit alpha-1C (Rattus norvegicus, UniProt P22002); format: functional
B2 bradykinin receptor = biological target: T4, B2 bradykinin receptor (Homo sapiens, UniProt P30411)
T4 sequence (P30411 whole entry): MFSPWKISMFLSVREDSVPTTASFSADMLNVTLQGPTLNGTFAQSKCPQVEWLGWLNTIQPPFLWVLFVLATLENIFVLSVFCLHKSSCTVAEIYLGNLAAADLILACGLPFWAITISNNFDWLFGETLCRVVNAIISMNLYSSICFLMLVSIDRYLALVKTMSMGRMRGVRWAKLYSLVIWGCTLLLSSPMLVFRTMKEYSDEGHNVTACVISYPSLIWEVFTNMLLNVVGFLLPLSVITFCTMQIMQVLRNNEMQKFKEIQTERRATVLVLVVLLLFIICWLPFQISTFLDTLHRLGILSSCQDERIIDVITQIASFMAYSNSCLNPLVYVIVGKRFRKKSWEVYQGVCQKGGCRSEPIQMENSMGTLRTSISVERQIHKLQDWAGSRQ
Also: assay procedure not described here.

Sequence of cGMP-inhibited 3',5'-cyclic phosphodiesterase 3A (Q14432 whole entry): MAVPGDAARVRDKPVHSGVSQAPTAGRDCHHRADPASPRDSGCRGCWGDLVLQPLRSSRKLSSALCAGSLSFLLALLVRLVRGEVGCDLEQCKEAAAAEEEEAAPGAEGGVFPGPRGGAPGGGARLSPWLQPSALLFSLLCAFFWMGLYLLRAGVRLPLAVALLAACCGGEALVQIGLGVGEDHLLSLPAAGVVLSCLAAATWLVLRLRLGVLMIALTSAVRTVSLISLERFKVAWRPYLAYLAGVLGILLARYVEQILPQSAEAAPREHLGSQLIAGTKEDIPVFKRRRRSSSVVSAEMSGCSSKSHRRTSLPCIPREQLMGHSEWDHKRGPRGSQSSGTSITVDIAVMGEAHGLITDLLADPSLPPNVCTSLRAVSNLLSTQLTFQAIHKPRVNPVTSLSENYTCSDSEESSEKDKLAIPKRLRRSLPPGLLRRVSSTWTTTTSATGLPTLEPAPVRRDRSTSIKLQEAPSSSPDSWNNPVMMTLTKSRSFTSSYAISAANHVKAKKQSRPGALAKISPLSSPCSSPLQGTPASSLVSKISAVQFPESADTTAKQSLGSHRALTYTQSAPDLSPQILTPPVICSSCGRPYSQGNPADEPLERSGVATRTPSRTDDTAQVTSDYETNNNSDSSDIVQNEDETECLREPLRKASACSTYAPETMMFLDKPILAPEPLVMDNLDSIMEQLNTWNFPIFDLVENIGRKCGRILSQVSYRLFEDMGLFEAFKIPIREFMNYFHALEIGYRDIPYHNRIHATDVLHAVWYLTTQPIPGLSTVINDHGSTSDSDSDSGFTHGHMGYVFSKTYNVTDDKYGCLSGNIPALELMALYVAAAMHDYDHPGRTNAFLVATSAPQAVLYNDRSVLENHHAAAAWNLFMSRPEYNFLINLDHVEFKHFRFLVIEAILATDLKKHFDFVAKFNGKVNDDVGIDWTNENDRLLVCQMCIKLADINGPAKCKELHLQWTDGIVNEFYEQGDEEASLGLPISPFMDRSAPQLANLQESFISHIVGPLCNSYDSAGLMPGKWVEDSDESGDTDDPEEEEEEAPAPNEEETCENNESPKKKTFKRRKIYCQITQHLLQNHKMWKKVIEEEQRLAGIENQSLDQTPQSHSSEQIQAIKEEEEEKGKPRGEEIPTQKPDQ
Sequence of Voltage-dependent L-type calcium channel subunit alpha-1C (P22002 whole entry): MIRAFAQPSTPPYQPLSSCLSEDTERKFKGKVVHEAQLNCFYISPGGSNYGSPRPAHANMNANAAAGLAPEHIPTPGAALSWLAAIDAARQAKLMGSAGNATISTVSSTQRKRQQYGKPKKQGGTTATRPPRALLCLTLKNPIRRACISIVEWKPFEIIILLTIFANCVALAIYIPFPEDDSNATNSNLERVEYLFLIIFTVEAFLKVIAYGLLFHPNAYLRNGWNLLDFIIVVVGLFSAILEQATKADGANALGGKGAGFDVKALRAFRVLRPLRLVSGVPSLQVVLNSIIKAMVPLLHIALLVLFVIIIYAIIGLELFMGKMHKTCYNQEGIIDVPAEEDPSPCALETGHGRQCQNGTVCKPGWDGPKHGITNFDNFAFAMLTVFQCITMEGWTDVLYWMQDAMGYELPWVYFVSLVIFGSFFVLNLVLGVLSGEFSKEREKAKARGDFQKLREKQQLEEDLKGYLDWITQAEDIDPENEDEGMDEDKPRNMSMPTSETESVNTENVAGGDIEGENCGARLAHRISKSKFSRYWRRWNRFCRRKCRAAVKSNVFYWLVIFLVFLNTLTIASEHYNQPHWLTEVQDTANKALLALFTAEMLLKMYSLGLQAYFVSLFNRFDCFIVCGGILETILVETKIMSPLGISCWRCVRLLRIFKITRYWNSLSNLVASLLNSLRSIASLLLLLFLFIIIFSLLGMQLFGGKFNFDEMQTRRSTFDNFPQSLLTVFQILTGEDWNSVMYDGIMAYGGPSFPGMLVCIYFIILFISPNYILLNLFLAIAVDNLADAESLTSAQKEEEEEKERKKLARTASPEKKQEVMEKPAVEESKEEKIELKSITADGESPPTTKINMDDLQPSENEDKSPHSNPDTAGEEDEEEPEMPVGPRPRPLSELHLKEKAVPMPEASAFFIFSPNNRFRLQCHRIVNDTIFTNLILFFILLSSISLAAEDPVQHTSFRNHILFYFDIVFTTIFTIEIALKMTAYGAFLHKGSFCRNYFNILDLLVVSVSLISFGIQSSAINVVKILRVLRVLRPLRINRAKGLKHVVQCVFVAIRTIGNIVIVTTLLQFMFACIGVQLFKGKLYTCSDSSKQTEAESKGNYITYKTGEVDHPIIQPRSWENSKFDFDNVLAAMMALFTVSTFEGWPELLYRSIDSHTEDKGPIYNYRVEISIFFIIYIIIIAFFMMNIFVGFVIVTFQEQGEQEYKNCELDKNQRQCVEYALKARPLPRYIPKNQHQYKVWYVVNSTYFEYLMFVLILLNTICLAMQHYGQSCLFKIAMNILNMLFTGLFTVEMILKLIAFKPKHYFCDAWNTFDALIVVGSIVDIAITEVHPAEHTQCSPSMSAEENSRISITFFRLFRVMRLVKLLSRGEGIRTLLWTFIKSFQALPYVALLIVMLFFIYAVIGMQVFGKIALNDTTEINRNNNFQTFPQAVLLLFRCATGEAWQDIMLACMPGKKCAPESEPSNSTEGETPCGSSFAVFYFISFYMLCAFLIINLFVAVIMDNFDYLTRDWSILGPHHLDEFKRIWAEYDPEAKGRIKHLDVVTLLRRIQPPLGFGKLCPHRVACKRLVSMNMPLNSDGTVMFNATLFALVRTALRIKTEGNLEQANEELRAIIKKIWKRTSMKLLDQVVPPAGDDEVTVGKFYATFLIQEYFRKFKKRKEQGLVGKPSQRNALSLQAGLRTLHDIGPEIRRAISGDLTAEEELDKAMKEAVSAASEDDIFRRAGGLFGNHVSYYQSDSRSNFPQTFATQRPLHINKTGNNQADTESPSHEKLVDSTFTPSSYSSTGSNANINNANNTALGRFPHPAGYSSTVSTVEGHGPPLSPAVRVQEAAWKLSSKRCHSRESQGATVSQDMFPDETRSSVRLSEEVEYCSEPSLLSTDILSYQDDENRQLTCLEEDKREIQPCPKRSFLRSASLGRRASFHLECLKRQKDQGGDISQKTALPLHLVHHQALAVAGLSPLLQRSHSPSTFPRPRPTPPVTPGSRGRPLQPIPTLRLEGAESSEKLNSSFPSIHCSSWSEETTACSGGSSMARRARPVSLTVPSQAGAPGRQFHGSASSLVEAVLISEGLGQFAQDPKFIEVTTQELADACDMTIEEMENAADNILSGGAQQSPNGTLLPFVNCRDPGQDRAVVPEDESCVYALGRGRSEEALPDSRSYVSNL
Sequence of Cannabinoid receptor 1 (P21554 whole entry): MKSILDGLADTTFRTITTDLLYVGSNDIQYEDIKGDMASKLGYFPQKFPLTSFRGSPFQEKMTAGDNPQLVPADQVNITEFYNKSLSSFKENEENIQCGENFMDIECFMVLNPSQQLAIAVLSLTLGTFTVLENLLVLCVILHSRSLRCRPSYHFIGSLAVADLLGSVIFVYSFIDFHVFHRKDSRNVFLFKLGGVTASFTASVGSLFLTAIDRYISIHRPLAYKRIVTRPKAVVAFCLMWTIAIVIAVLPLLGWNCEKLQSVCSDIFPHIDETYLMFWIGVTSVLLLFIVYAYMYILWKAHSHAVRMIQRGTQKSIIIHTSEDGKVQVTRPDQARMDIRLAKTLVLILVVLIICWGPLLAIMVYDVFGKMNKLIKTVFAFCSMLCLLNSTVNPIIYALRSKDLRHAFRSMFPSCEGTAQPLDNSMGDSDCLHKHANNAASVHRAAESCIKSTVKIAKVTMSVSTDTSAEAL
Sequence of Sodium-dependent noradrenaline transporter (P23975 whole entry): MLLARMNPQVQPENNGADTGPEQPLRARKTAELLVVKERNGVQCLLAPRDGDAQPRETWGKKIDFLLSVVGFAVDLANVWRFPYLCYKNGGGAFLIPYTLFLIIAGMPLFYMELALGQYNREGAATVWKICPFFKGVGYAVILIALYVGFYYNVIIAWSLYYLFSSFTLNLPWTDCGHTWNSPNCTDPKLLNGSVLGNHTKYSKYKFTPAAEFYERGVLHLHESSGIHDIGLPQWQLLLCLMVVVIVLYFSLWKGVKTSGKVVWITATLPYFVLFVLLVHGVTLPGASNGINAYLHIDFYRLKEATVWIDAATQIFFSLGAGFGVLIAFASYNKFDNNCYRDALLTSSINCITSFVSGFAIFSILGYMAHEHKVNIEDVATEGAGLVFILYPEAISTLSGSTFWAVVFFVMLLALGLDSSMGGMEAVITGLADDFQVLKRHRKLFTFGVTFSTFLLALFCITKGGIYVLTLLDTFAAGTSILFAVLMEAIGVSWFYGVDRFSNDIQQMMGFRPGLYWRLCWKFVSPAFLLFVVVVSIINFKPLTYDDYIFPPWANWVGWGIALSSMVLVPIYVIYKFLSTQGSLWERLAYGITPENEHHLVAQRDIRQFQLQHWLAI
Sequence of Mu-type opioid receptor (P35372 whole entry): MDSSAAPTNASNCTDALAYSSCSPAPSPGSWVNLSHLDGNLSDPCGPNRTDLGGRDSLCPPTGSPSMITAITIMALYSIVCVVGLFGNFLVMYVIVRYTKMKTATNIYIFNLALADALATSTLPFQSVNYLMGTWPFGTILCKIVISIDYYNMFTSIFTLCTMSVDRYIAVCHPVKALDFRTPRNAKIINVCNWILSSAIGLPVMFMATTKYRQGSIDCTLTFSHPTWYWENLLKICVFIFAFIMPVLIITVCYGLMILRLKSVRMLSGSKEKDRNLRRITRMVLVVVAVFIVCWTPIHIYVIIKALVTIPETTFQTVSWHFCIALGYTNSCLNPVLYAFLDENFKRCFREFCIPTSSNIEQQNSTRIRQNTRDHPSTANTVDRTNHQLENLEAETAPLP

| SMILES | AC50 (Prothrombin) [µM] | AC50 [1] [µM] | AC50 [2] [µM] | AC50 [3] [µM] | AC50 [4] [µM] | AC50 (D(3) dopamine receptor) [µM] | AC50 (Adenosine receptor A3) [µM] | AC50 (Mu-type opioid receptor) [µM] | AC50 (Cannabinoid receptor 1) [µM] | AC50 (Progesterone receptor) [µM] | AC50 [5] [µM] | AC50 (B2 bradykinin receptor) [µM] |
| --- | --- | --- | --- | --- | --- | --- | --- | --- | --- | --- | --- | --- |
| C[C@@H](CN1CC(=O)NC(=O)C1)N1CC(=O)NC(=O)C1 [DEXRAZOXANE] | > 30 | > 30 | > 30 | > 30 | > 30 | > 30 | > 30 | > 30 | – | – | – | – |
| Cc1ccc(C(C)C)c(O)c1 [THYMOL] | > 30 | > 30 | 23.3 | > 30 | > 30 | > 30 | > 30 | > 30 | – | – | – | – |
| OC[C@H]1NC[C@H](O)[C@@H](O)[C@H]1O | > 30 | > 30 | > 30 | > 30 | > 30 | > 30 | > 30 | > 30 | – | – | – | – |
| CN1CCN(C(c2ccccc2)c2ccc(Cl)cc2)CC1 (centres undefined) [CHLORCYCLIZINE] | > 30 | > 30 | 21.2 | > 30 | > 30 | 0.449 | > 30 | > 30 | – | – | – | – |
| CN(C)CCC=C1c2ccccc2CCc2ccccc21 [AMITRIPTYLINE] | > 30 | > 30 | – | – | > 30 | 0.147 | > 30 | 9.46 | > 10 | > 30 | > 10 | > 30 |
| O=C(O)[C@H](O)[C@@H](O)[C@H](O)[C@H](O)CO [GLUCONIC ACID] | > 30 | > 30 | > 30 | > 30 | 21.4 | > 30 | > 30 | > 30 | – | – | – | – |
| CC#CC(=O)N1CCC[C@H]1c1nc(-c2ccc(C(=O)Nc3ccccn3)cc2)c2c(N)nccn12 [ACALABRUTINIB] | > 30 | > 30 | > 30 | > 30 | > 30 | > 30 | – | > 30 | – | – | – | – |
| CCCCCCCCCCCCCCCC(=O)OC[C@H](COP(=O)([O-])OCC[N+](C)(C)C)OC(=O)CCCCCCCCCCCCCCC [COLFOSCERIL PALMITATE] | > 30 | > 30 | > 30 | > 30 | > 30 | > 30 | – | > 30 | – | – | – | – |
| CN1CCC(N(Cc2cccs2)c2ccccc2)CC1 [THENALIDINE] | > 30 | > 30 | 0.399 | > 30 | > 30 | 4.46 | > 30 | 7.42 | – | – | – | – |
| CC(=O)Oc1ccccc1C(=O)O [ASPIRIN] | > 30 | > 30 | > 30 | – | > 30 | > 30 | > 30 | > 30 | > 10 | – | > 10 | > 30 |
| COc1cccc2c1C(=O)c1c(O)c3c(c(O)c1C2=O)C[C@@](O)(C(=O)CO)C[C@@H]3O[C@H]1C[C@H](N)[C@H](O[C@@H]2CCCCO2)[C@H](C)O1 [PIRARUBICIN] | > 30 | > 30 | > 30 | > 1 | > 30 | > 30 | – | > 30 | – | – | – | – |
| Cc1c(C)c2c(c(C)c1O)CCC(C)(COc1ccc(CC3SC(=O)NC3=O)cc1)O2 (centres undefined) [TROGLITAZONE] | > 30 | 11 | 4.11 | – | 4.9 | 6.23 | 3.29 | 14 | > 30 | > 30 | 21 | > 30 |
| CCOC(=O)[C@H](CCc1ccccc1)N[C@@H](C)C(=O)N1Cc2ccccc2C[C@H]1C(=O)O | > 30 | > 30 | > 30 | – | > 30 | > 30 | > 30 | > 30 | > 10 | – | > 10 | > 30 |
| CC(C)C[C@H](NC(=O)[C@H](Cc1ccccc1)NC(=O)c1cnccn1)B(O)O [BORTEZOMIB] | – | – | – | – | – | – | – | – | > 30 | > 30 | > 30 | > 30 |
| CCCCCCCC/C=C\CCCCCCCC(=O)O [OLEIC ACID] | > 30 | > 30 | 27.2 | > 30 | > 30 | > 30 | – | > 30 | – | – | – | – |
| CN(C)CCCC1(c2ccc(F)cc2)OCc2cc(C#N)ccc21 (centres undefined) [CITALOPRAM] | > 30 | > 30 | – | – | > 30 | – | > 30 | – | > 10 | – | > 10 | > 30 |
| NCC1(CC(=O)O)CCCCC1 [GABAPENTIN] | > 30 | > 30 | > 30 | – | > 30 | > 30 | > 30 | > 30 | > 10 | > 30 | > 10 | > 30 |
| CNC1(C)C2CCC(C2)C1(C)C (centres undefined) [MECAMYLAMINE] | – | – | – | – | – | – | – | – | > 10 | > 10 | > 10 | > 10 |
| CC(=O)SCC(Cc1ccccc1)C(=O)NCC(=O)OCc1ccccc1 (centres undefined) [RACECADOTRIL] | – | – | – | – | – | – | – | – | > 10 | > 30 | 28 | > 30 |
| O=C(c1ccccc1)c1ccc2n1CCC2C(=O)O (centres undefined) [KETOROLAC] | – | – | – | – | – | – | – | – | > 30 | > 10 | > 30 | > 10 |
| COC(=O)CCc1ccc(OCC(O)CNC(C)C)cc1 (centres undefined) [ESMOLOL] | – | – | – | – | – | – | – | – | > 30 | > 30 | > 30 | > 30 |
| C=CCOc1ccc(CC(=O)O)cc1Cl [ALCLOFENAC] | > 30 | > 30 | > 30 | > 30 | > 30 | – | > 30 | > 30 | – | – | – | – |
| CO[C@@]1(NC(=O)C(C(=O)O)c2ccc(O)cc2)C(=O)N2C(C(=O)O)=C(CSc3nnnn3C)CO[C@@H]21 (some centres undefined) [MOXALACTAM] | > 30 | > 30 | > 30 | > 30 | > 30 | > 30 | – | > 30 | – | – | – | – |
